Experimental data as given in paper PMC7037731, “Synthesis, Anticancer Activity, and Preliminary Pharmacokinetic Evaluation of 4,4-Disubstituted Curcuminoid 2,2-bis(Hydroxymethyl)Propionate Derivatives” (Molecules, 2020).
Values after ≈ are worked out from the molar mass of the structure shown.

Assays:
MDA-MB-231 [1] = assay: MTT anti-proliferative assay, MDA-MB-231; assay type: cell-based; conditions: Homo sapiens, 48 h treatment, MTT, mean ± SD of at least three experiments, read-out: IC50 (M)/ 48 h MDA-MB-231
Method: (§1) These compounds, along with all newly synthesized compounds, were screened for anti-proliferative activity against the same TNBC and colon cancer cell lines.
(§2) Cell viability was evaluated by measuring the reduction in MTT to yield blue formazan. Cells were cultured in 96-well plates, allowed to attach overnight, and then treated with compounds. After treatment, MTT solution (1 mg/mL) was added to each well, and plates were incubated for another 2 h. Medium was removed, blue formazan was dissolved in DMSO, and the absorbance was read at 570 nm by Multiskan Go spectrophotometer (Thermo Scientific, Madison, WI, USA).

HCT-116 = assay: MTT anti-proliferative assay, HCT-116; assay type: cell-based; conditions: Homo sapiens, 48 h treatment, MTT, mean ± SD of at least three experiments, read-out: IC50 (M)/ 48 h HCT-116
Method: as §1, §2

MDA-MB-231 [2] = conditions: MDA-MB-231 in vitro and in vivo; cited from earlier work
[3] = Preliminary pharmacokinetic evaluation of 2 in rat (LC-MS of serum); assay type: in vivo, Sprague-Dawley rats; conditions: for time of maximum blood content: LC signal in serum
Method: Male Sparague-Dawley rat (420 g) from National Laboratory Animal Center, Taipei, Taiwan were maintained under the regulations of the Institutional Animal Care and Use Committee of the National Health Research Institutes, Taiwan. The animal studies were supervised under the Institutional Animal Care and Use Committee, China Medical University, Taichung, Taiwan with a protocol number ([…]-2018-278). Rat was fasted for 16 h before dosing. Compound 2 was dissolved in aqueous solution (5% ethanol and 10% Tween80 in 85% saline) and administrated via oral gavage at a dosage of 100 mg/kg. Blood samples were collected at selected time points (5, 10, 20, 30, 60, 120, 240, 360, 480 min) post dose and centrifuged at 10,000× g for 15 min to provide serum samples, which were stored at −80 °C until subsequent sample extraction.
Methods for the preparation of 2, 2m, 18, 19, 20 and 21 serum sample are delineated as follows. 50 μL of acetate buffer (pH 5.0), 50 μL of ascorbic acid (200 mg/mL), and 50 μL of 0.1 N HCl solution was added into 100 μL of serum which was collected at different time points). The resulting mixture was partitioned with 250 μL of ethyl acetate (containing 5.0 μg/mL of butyl paraben as the internal standard). After centrifuging at 10,000× g for 15 min, the upper organic layer was separated and dried under nitrogen gas to provide the crude sample, which was diluted with an appropriate volume of acetonitrile for LC-MS analysis.
The amount of 22 and 23 were analyzed by the serum samples before and after treatment with enzyme solution. The procedure for enzyme treatment is shown as follows. 100 μL of serum was treated with enzyme solution (50 μL; containing 1000 units/mL of sulfatase and 39861 units/mL of β-glucuronidase in pH 5.0 acetate buffer), 50 μL of 0.1 N HCl solution and 50 μL of ascorbic acid (200 mg/mL) in the light protected tubes at 37 °C. For optimal hydrolysis efficiency, the incubation time was decided as 2 h based on a previous study. The mixture was then partitioned with 250 μL of ethyl acetate (containing 5.0 μg/mL of butyl paraben as the internal standard). After centrifuging at 10,000× g for 15 min, the upper organic layer was separated and dried under nitrogen gas to provide the crude sample, which was diluted with an appropriate volume of acetonitrile for LC analysis.
All samples obtained from in vivo pharmacokinetic studies were assayed using LC-MS for the analysis of 2 and the corresponding metabolites. The Waters ACQUITY UPLC I-Class system (Waters Corp., Milford, MA, USA) was utilized. System control and all of the mass spectrometry data were acquired and analyzed using UNIFI software (Waters Corp.). For sample separation, the LC was equipped with an Inertsil ph-3 (50 × 2.1 mm, 2 μm particle size) RPLC column (GL Sciences Inc. Tokyo, Japan) in which the column temperature was held at 35 °C, injection volume was 7.5 μL, and the flow rate of the mobile phase was 200 μL/min. The elution started from 50% mobile phase A (ultrapure water + 0.1% formic acid) and 50% mobile phase B (100% methanol + 0.1% formic acid), held at 50% B for 0.5 min, raised to 95% B in 5.5 min, held at 95% B for 1 min, and then lowered to 50% B in 1 min. Before sample injection, the column was equilibrated by pumping 50% B for 4 min. The analysis of target compounds for all samples was performed by using a Waters Vion IMS QTof mass spectrometer. Data were acquired in the electrospray ionization (ESI) positive ion MS^E mode with range of m/z 100–1000 and 0.5 s scan time. Parameters were set as capillary voltage of 2.5 kV, source temperature of 100 °C, desolvation temperature at 250 °C, cone gas maintained at 10 L/h, desolvation gas maintained at 600 L/h. The acquired m/z and isotope pattern were processed by UNIFI software to illustrate chromatogram, and the amounts of compound was calculated with the integrated peak area of signals.

[4] = Visible signs of toxicity and behavioral changes in xenograft mice; assay type: in vivo; conditions: 50, 100, 150 mg/kg p.o. daily, 30 days, vs control groups
Method: (§3) The therapeutic effect of 2 was evaluated on HCT-116 colon tumor xenograft bearing nude mice. The oral administration of 2 at doses of 50, 100, or 150 mg/kg bw per day were performed after tumors reached approximately 100 mm^3 and continued for 30 consecutive days. 5-Fluorouracil treatment (30 mg/kg bw, i.p., QOD) was used as a positive control. […] There was a clear dose- and time-dependent inhibitory effect on tumor size in the other two groups, in which at 50 and 150 mg/kg doses the volume of the HCT-116 colon tumor was reduced to 73% and 40% of the control, respectively (Figure 2). The body weight of the mice was recorded prior to dosing every 3 d, and the average body weight of each group is depicted in Figure 3. Otherwise, they were monitored for visible signs of toxicity and behavioral changes 1 h after each administration.
Male nu/nu mice (5 weeks old) from National Laboratory Animal Center (Taipei, Taiwan) were maintained under the procedures and guidelines provided by the Institutional Animal Care and Use Committee of the National Health Research Institutes (Taipei, Taiwan). […] Tumor size and mouse body weight were measured once every 3 days, and tumor volume (mm^3) was calculated using the equation: length × (width)^2 × 0.5. […]

[5] = Solubility in aqueous dosing vehicle; assay type: physicochemical; conditions: aqueous with cosolvent or surfactant or cyclodextrin, 5% ethanol, 10% Tween 80, 85% saline, read-out: maximum solubility in aqueous vehicle
Text: Subsequently, the latter would be converted into glucuronide 22 and sulfate 23 through the phase II metabolism conjugation of hydrogenated products 18, 19, 20, and 21 via the phase I metabolic pathway (Scheme 6). To verify our assumptions, the preliminary pharmacokinetic evaluation of 2 was executed.

[6] = test system: HCT-116 colon tumor xenograft; assay: In vivo antitumor activity, HCT-116 colon tumor xenograft bearing nude mice; design: species or system nu/nu mice; conditions: 30 days
Method: as §3
Male nu/nu mice (5 weeks old) from National Laboratory Animal Center (Taipei, Taiwan) were maintained under the procedures and guidelines provided by the Institutional Animal Care and Use Committee of the National Health Research Institutes (Taipei, Taiwan). All experiments were supervised under the Institutional Animal Care and Use Committee, China Medical University, Taichung, Taiwan with a protocol number ([…]-2018-278). HCT-116 colon cancer cells (5 × 10^6 cells per mouse) were suspended in 0.1 mL of Matrigel solution (50% v/v Matrigel in PBS) and inoculated into the mammary fat pads of the mice. When the tumor size reached 100 mm^3, the tumor-bearing mice were randomly divided into four groups for treating with vehicle (5% ethanol and 10% tween 80 in 85% saline, 0.1 mL) and 2 (p.o. 50, 100 and 150 mg/kg/day body weight) respectively. Compounds was administered via oral route daily for 30 days. 5-Fluorouracil-treated group (i.p. 30 mg/kg) is the positive control. Tumor size and mouse body weight were measured once every 3 days, and tumor volume (mm^3) was calculated using the equation: length × (width)^2 × 0.5. At the end of experiments, mice were sacrificed.

[7] = Chemical stability on storage; assay type: physicochemical; conditions: storage at 4 °C; DMSO-d6 1 week at room temperature
Text: The low stability of 9 may have been due to self- or cross-hydrolysis, such that the two hydroxyl groups at the C-4 alkyl chains cleaved the ester linkage of the 2,2-bis(hydroxymethyl)propionate group. […] Therefore, we modified the hydroxymethyl group of 9 and were able to produce compounds 10 and 11. To prepare 10, compound 9 was acetylated with acetyl chloride in the presence of Et3N, and the resulting di-acetylation intermediate was hydrolyzed by hydrochloric acid. Compound 11 was obtained with an overall yield of 5% following a similar three-step reaction modified for methylation. The stability of these two products at room temperature may have been due to the conversion of the labile hydroxyl groups of the C-4 alkyl chains of 10 and 11 into non-nucleophilic […] groups, respectively, which prevented degradation.

| IC50 (MDA-MB-231 [1]) | IC50 (HCT-116) | time from which the metabolite emerged in blood ([3]; after oral 2 at 100 mg/kg) | melting point | chemical stability [7] | Structure (SMILES) | potency relative to curcumin (times) (MDA-MB-231 [2]) | time of second highest blood content ([3]; after oral 2 at 100 mg/kg) | time of third highest blood content ([3]; after oral 2 at 100 mg/kg) | time of maximum blood content ([3]; after oral 2 at 100 mg/kg) | plasma stability compared to curcumin ([3]; oral 100 mg/kg) | adverse effects (visible signs of toxicity, behavioral changes) [4] | solubility [5] | tumor volume as % of the control ([6]; 50 mg/kg p.o. daily) | tumor volume reduction ([6]; 50 mg/kg p.o. daily, vs control) | tumor volume reduction / tumor inhibition ratio ([6]; 100 mg/kg p.o. daily, vs control) | tumor volume as % of the control ([6]; 150 mg/kg p.o. daily) | tumor volume reduction ([6]; 150 mg/kg p.o. daily, vs control) |
| --- | --- | --- | --- | --- | --- | --- | --- | --- | --- | --- | --- | --- | --- | --- | --- | --- | --- |
| 3.06e-06 ± 1.8e-07 M | 6.25e-06 ± 6e-07 M |  |  |  | COc1cc(/C=C/C(=O)/C=C(O)/C=C/c2ccc(OC(=O)C(C)(CO)CO)c(OC)c2)ccc1OC(=O)C(C)(CO)CO [Compound 1, curcumin di-O-2,2-bis(hydroxymethyl)propionate] | 8 to 10 |  |  |  |  |  |  |  |  |  |  |  |
| 4.17e-06 ± 1.5e-07 M | 2.17e-06 ± 1.6e-07 M | 10 min | 104 to 106 °C |  | COc1cc(/C=C/C(=O)C(C)(C)C(=O)/C=C/c2ccc(O)c(OC)c2)ccc1O [Compound 2m, (1E,6E)-1,7-bis(4-Hydroxy-3-methoxyphenyl)-4,4-dimethylhepta-1,6-diene-3,5-dione] |  |  |  | 120 min |  |  |  |  |  |  |  |  |
| > 0.0001 M | > 0.0001 M |  |  | unstable | COc1cc(/C=C/C(=O)C(CO)(CO)C(=O)/C=C/c2ccc(OC(=O)C(C)(CO)CO)c(OC)c2)ccc1OC(=O)C(C)(CO)CO [Compound 9, [(1E,6E)-4,4-bis(Hydroxymethyl)-3,5-dioxohepta-1,6-diene-1,7-diyl]bis(2-methoxy-4,1-phenylene) bis[3-hydroxy-2-(hydroxymethyl)-2-methylpropanoate]] |  |  |  |  |  |  |  |  |  |  |  |  |

| Structure (SMILES) | IC50 (MDA-MB-231 [1]) | IC50 (HCT-116) | time from which the metabolite emerged in blood ([3]; after oral 2 at 100 mg/kg) | melting point | chemical stability [7] | potency relative to curcumin (times) (MDA-MB-231 [2]) | time of second highest blood content ([3]; after oral 2 at 100 mg/kg) | time of third highest blood content ([3]; after oral 2 at 100 mg/kg) | time of maximum blood content ([3]; after oral 2 at 100 mg/kg) | plasma stability compared to curcumin ([3]; oral 100 mg/kg) | adverse effects (visible signs of toxicity, behavioral changes) [4] | solubility [5] | tumor volume as % of the control ([6]; 50 mg/kg p.o. daily) | tumor volume reduction ([6]; 50 mg/kg p.o. daily, vs control) | tumor volume reduction / tumor inhibition ratio ([6]; 100 mg/kg p.o. daily, vs control) | tumor volume as % of the control ([6]; 150 mg/kg p.o. daily) | tumor volume reduction ([6]; 150 mg/kg p.o. daily, vs control) |
| --- | --- | --- | --- | --- | --- | --- | --- | --- | --- | --- | --- | --- | --- | --- | --- | --- | --- |
| COc1cc(/C=C/C(=O)C(C)(C)C(=O)/C=C/c2ccc(OC(=O)C(C)(CO)CO)c(OC)c2)ccc1OC(=O)C(C)(CO)CO [Compound 2] | 2.25e-06 ± 1e-07 M | 3.1e-06 ± 2.9e-07 M |  |  |  |  | 120 min | 360 min | 20 min | superior plasma stability | No obvious adverse effects | ~200 mg/mL (≈ 318 mM) | 73% | 27% | 45% | 40% | 60% |
